# Assay results: BindingDB's records for doi:10.1021/acsmedchemlett.9b00264 (Xiamen University, 2019)
# Legend:
# [1] = Inhibition of JMJD6 in human HeLa cells assessed as decrease in cell proliferation measured after 72 hrs by CellTiter 96 AQueous one solution cell proliferation assay
# [2] = Inhibition of JMJD6 in human […] cells assessed as decrease in cell proliferation measured after 72 hrs by CellTiter 96 AQueous one solution cell proliferation assay
structure (smiles),measurement,setting,value
Cc1ccc2oc(=O)c(-c3nc4cnccc4[nH]3)cc2c1,IC50,[1],2.44 µM
same,IC50,[2],10.2 µM
